Experimental data taken from patent publication US11007136B2, “Cosmetic composition for wrinkle reduction containing gypenoside isolated from Gynostemma pentaphyllum” (CELLTRION INC., priority 2015, dated 2021).

How the values were obtained:
[1] = Titer stability of UL4 and UL5 within formulations (HPLC); format: physicochemical; conditions: for content stability Result: over 12 weeks
Procedure: As shown in Formulation Examples 1, 2 and 3, cosmetic compositions of a high viscosity emulsified formulation, a low viscosity emulsified formulation and a solubilized formulation, respectively comprising 0.2% of the Gynostemma pentaphyllum gypenoside fraction, were stored under a condition of 4 CC, 30 CC, 45° C. and sunlight for 12 weeks and changes with passage of time (% compared to an initial content) in the gypenosides UL4 and UL5, which were index ingredients for quantification out of the Gynostemma pentaphyllum gypenoside ingredients, were observed through an HPLC analysis, and results thereof were indicated in Tables 10 to 12.

[2] = test system: human dermal fibroblast neonatal; test: Cytotoxicity test (MTT); format: cell-based; conditions: for HDFn Viability: 48 h, % control
Procedure: A human dermal fibroblast neonatal (Cascade Co.) was inoculated into a 24-well microplate (5×10^4 cells/well) by using a medium, in which Dulbeco's Modified Eagle's Medium (DMEM) was supplemented with 10% fetal bovine serum, thus being cultured under a condition of 37° C. and 5% CO2 for 24 hours. Then, the same was replaced with a serum-free DMEM medium and cultured for 24 hours, thus treating the Gynostemma pentaphyllum gypenoside fraction obtained from the Example 1 and the gypenosides UL4 and UL5 isolated therefrom, respectively. After being cultured for 48 hours, an MTT solution was added thereto, thus being cultured for four hours. The medium was removed therefrom and DMSO was added thereto, thus dissolving an MTT formazan. The MTT formazan dissolved in the DMSO was taken out and an optical density thereof was measured at 570 nm, thus being compared to a group without sample treatment and indicated as % control.

[3] = test system: human dermal fibroblast neonatal; test: Procollagen production (collagen synthesis promotion), ELISA kit; format: cell-based; conditions: 1 and 5 μg/ml, 48 h, versus positive control NAG at the same concentration, FIG. 3
Procedure: A human dermal fibroblast neonatal (Cascade Co.) was inoculated into a 24-well microplate (5×10^4 cells/well) by using a medium, in which Dulbeco's Modified Eagle's Medium (DMEM) was supplemented with 10% fetal bovine serum, thus being cultured under a condition of 37° C. and 5% CO2 for 24 hours. Then, the same was replaced with a serum-free DMEM medium and cultured for 24 hours, after which an appropriate amount of a sample fluid was treated so that a final concentration of each test compound could reach 1 μg/ml and 5 μg/ml. After being cultured for 48 hours, a cell culture fluid was collected and then an amount of procollagen was measured by using a collagen measurement kit of Takara Company (Takara Shuzo Co., Ltd.). First of all, the collected cell culture fluid was injected into a 96-well microplate, to which a primary collagen antibody was evenly applied, such that an antigen-antibody reaction could occur at 37° C. for three hours. The cell culture fluid was removed from the well and washed four times with PBS. A color causing material was injected into each well, after which a reaction took place at a room temperature for 15 minutes, such that 1 N sulfuric acid solution was added thereto, thus stopping the reaction. An optical density was measured at a wavelength of 450 nm by means of a spectrophotometer. […]

content, % compared to an initial content ([1]; High viscosity emulsified formulation, 4° C., 1 week): 100.6%
content, % compared to an initial content ([1]; High viscosity emulsified formulation, 4° C., 2 weeks): 95.1%
content, % compared to an initial content ([1]; High viscosity emulsified formulation, 4° C., 4 weeks): 104.4%
content, % compared to an initial content ([1]; High viscosity emulsified formulation, 4° C., 8 weeks): 104.2%
content, % compared to an initial content ([1]; High viscosity emulsified formulation, 4° C., 12 weeks): 106.9%
content stability Result ([1]; High viscosity emulsified formulation, 4° C.): Stable
content, % compared to an initial content ([1]; High viscosity emulsified formulation, 30° C., 1 week): 103.8%
content, % compared to an initial content ([1]; High viscosity emulsified formulation, 30° C., 2 weeks): 105.7%
content, % compared to an initial content ([1]; High viscosity emulsified formulation, 30° C., 4 weeks): 108.2%
content, % compared to an initial content ([1]; High viscosity emulsified formulation, 30° C., 8 weeks): 103.4%
content, % compared to an initial content ([1]; High viscosity emulsified formulation, 30° C., 12 weeks): 104.1%
content stability Result ([1]; High viscosity emulsified formulation, 30° C.): Stable
content, % compared to an initial content ([1]; High viscosity emulsified formulation, 45° C., 1 week): 102.6%
content, % compared to an initial content ([1]; High viscosity emulsified formulation, 45° C., 2 weeks): 104.6%
content, % compared to an initial content ([1]; High viscosity emulsified formulation, 45° C., 4 weeks): 102.1%
content, % compared to an initial content ([1]; High viscosity emulsified formulation, 45° C., 8 weeks): 101.8%
content, % compared to an initial content ([1]; High viscosity emulsified formulation, 45° C., 12 weeks): 103.1%
content stability Result ([1]; High viscosity emulsified formulation, 45° C.): Stable
content, % compared to an initial content ([1]; High viscosity emulsified formulation, Sunlight, 1 week): 101.8%
content, % compared to an initial content ([1]; High viscosity emulsified formulation, Sunlight, 2 weeks): 99.2%
content, % compared to an initial content ([1]; High viscosity emulsified formulation, Sunlight, 4 weeks): 103%
content, % compared to an initial content ([1]; High viscosity emulsified formulation, Sunlight, 8 weeks): 101.1%
content, % compared to an initial content ([1]; High viscosity emulsified formulation, Sunlight, 12 weeks): 104.9%
content stability Result ([1]; High viscosity emulsified formulation, Sunlight): Stable
content, % compared to an initial content ([1]; Low viscosity emulsified formulation, 4° C., 1 week): 98.8%
content, % compared to an initial content ([1]; Low viscosity emulsified formulation, 4° C., 2 weeks): 100.4%
content, % compared to an initial content ([1]; Low viscosity emulsified formulation, 4° C., 4 weeks): 102.8%
content, % compared to an initial content ([1]; Low viscosity emulsified formulation, 4° C., 8 weeks): 100.2%
content, % compared to an initial content ([1]; Low viscosity emulsified formulation, 4° C., 12 weeks): 95.2%
content stability Result ([1]; Low viscosity emulsified formulation, 4° C.): Stable
content, % compared to an initial content ([1]; Low viscosity emulsified formulation, 30° C., 1 week): 103.3%
content, % compared to an initial content ([1]; Low viscosity emulsified formulation, 30° C., 2 weeks): 103.9%
content, % compared to an initial content ([1]; Low viscosity emulsified formulation, 30° C., 4 weeks): 102.2%
content, % compared to an initial content ([1]; Low viscosity emulsified formulation, 30° C., 8 weeks): 105.6%
content, % compared to an initial content ([1]; Low viscosity emulsified formulation, 30° C., 12 weeks): 105%
content stability Result ([1]; Low viscosity emulsified formulation, 30° C.): Stable
content, % compared to an initial content ([1]; Low viscosity emulsified formulation, 45° C., 1 week): 103.5%
content, % compared to an initial content ([1]; Low viscosity emulsified formulation, 45° C., 2 weeks): 102%
content, % compared to an initial content ([1]; Low viscosity emulsified formulation, 45° C., 4 weeks): 104.8%
content, % compared to an initial content ([1]; Low viscosity emulsified formulation, 45° C., 8 weeks): 94.2%
content, % compared to an initial content ([1]; Low viscosity emulsified formulation, 45° C., 12 weeks): 98.3%
content stability Result ([1]; Low viscosity emulsified formulation, 45° C.): Stable
content, % compared to an initial content ([1]; Low viscosity emulsified formulation, Sunlight, 1 week): 94.4%
content, % compared to an initial content ([1]; Low viscosity emulsified formulation, Sunlight, 2 weeks): 98.1%
content, % compared to an initial content ([1]; Low viscosity emulsified formulation, Sunlight, 4 weeks): 101.6%
content, % compared to an initial content ([1]; Low viscosity emulsified formulation, Sunlight, 8 weeks): 101%
content, % compared to an initial content ([1]; Low viscosity emulsified formulation, Sunlight, 12 weeks): 102.6%
content stability Result ([1]; Low viscosity emulsified formulation, Sunlight): Stable
content, % compared to an initial content ([1]; Solubilized formulation, 4° C., 1 week): 98.8%
content, % compared to an initial content ([1]; Solubilized formulation, 4° C., 2 weeks): 95.7%
content, % compared to an initial content ([1]; Solubilized formulation, 4° C., 4 weeks): 105.1%
content, % compared to an initial content ([1]; Solubilized formulation, 4° C., 8 weeks): 102.8%
content, % compared to an initial content ([1]; Solubilized formulation, 4° C., 12 weeks): 102.3%
content stability Result ([1]; Solubilized formulation, 4° C.): Stable
content, % compared to an initial content ([1]; Solubilized formulation, 30° C., 1 week): 100%
content, % compared to an initial content ([1]; Solubilized formulation, 30° C., 2 weeks): 105.1%
content, % compared to an initial content ([1]; Solubilized formulation, 30° C., 4 weeks): 108.6%
content, % compared to an initial content ([1]; Solubilized formulation, 30° C., 8 weeks): 103.7%
content, % compared to an initial content ([1]; Solubilized formulation, 30° C., 12 weeks): 104.9%
content stability Result ([1]; Solubilized formulation, 30° C.): Stable
content, % compared to an initial content ([1]; Solubilized formulation, 45° C., 1 week): 100.3%
content, % compared to an initial content ([1]; Solubilized formulation, 45° C., 2 weeks): 101.4%
content, % compared to an initial content ([1]; Solubilized formulation, 45° C., 4 weeks): 97.2%
content, % compared to an initial content ([1]; Solubilized formulation, 45° C., 8 weeks): 102.1%
content, % compared to an initial content ([1]; Solubilized formulation, 45° C., 12 weeks): 95.6%
content stability Result ([1]; Solubilized formulation, 45° C.): Stable
content, % compared to an initial content ([1]; Solubilized formulation, Sunlight, 1 week): 97.9%
content, % compared to an initial content ([1]; Solubilized formulation, Sunlight, 2 weeks): 95.9%
content, % compared to an initial content ([1]; Solubilized formulation, Sunlight, 4 weeks): 104.9%
content, % compared to an initial content ([1]; Solubilized formulation, Sunlight, 8 weeks): 103.5%
content, % compared to an initial content ([1]; Solubilized formulation, Sunlight, 12 weeks): 103.3%
content stability Result ([1]; Solubilized formulation, Sunlight): Stable
SMILES: CC(C)=CC1C[C@](O)([C@H]2CC[C@]3(C)[C@@H]2CC[C@@H]2[C@@]4(C=O)CC[C@H](O[C@@H]5OC[C@H](O)[C@H](O[C@@H]6O[C@H](CO)[C@@H](O)[C@H](O)[C@H]6O)[C@H]5O[C@@H]5O[C@@H](C)[C@H](O)[C@@H](O)[C@H]5O)C(C)(C)[C@@H]4CC[C@]23C)[C@H](O)O1 (stereo partly drawn) [Gypenoside UL5, (23ξ)-3β,20β,21α-trihydroxy-19-oxo-21,23-epoxy-dammar-24-ene-3-O-[α-L-rhamnopyranosyl (1→2)][β-D-glucopyranosyl (1→3)]-α-L-arabinopyranoside]
HDFn Viability ([2]; 5 ug/ml): 100%
HDFn Viability ([2]; 10 ug/ml): 102%
HDFn Viability ([2]; 50 ug/ml): 113%
cytotoxicity ([2]; at concentrations promoting procollagen synthesis): did not show any cytotoxicity
procollagen-producing effect compared with NAG [3]: the same or larger amount of procollagen
